Experiments:
Format in all cases: cell-based, human
[1] = tested on: bone marrow mononuclear cells (BMMC) from primary AML patients; assay: Secreted IL-1β in primary bone marrow mononuclear cells ex vivo
Experimental: For cytokine assays on primary AML and healthy bone marrow cells, cells were seeded at 0.2 million in 150 μL media per well of ultra-low attachment 96-well plate in duplicates. Cell culture media was collected 24 and 48 hours post-treatment with Compound 1 and/or LPS. Cells were pelleted, fixed in 1.6% PFA and froze down for flow cytometry analysis.
Normal PBMCs were purchased from AllCells (Cat No. PB006F). Primary AML BMMC in were purchased from Conversant (SKU ID: BBM1000-E1110036458110215SH) or Fidelis Research (AML55, AML57, AML73, AML74, AML76, AML79, AML80, AML81, AML84, AML95). Bone marrow from health donor was purchased from StemCell Technologies (Cat No. 70001.2).
Normal PBMCs were cultured in RPMI-1640 (ATCC Cat No. 30-2001) containing 20% fetal bovine serum (Corning Cat No. 35-010-CV). […]
IL-1α (Meso Scale Disgnostics, Cat No. K151RBD), IL-1β (Meso Scale Disgnostics, Cat No. K151QPD), IL-1RA (Meso Scale Disgnostics, Cat No. K151WTD), IL-18 (Meso Scale Disgnostics, Cat No. K151VJK), TNFa (Meso Scale Disgnostics, Cat No. K151QWD), VEGF Meso Scale Disgnostics, Cat No. K151RHD) levels were measured by (Meso Scale Disgnostics assay kits following manufacturer's instructions. Measurements were made on a MESO™ SECTOR S 600 plate reader (Meso Scale Disgnostics). […]

ML-2 cells = assay: Immunoblot analysis of target proteins
Experimental: Cells were washed in ice-cold 1×PBS twice before harvest in Cell Extraction Buffer (ThermoFisher Cat No. FNN0011) supplemented with 1× Halt Protease Inhibitor Cocktail (ThermoFisher Cat No. 78429). Whole cell extracts were collected after centrifugation at 14,000 g for 10 minutes, resolved on 4-12% Bis-Tris Novex Precast Gels (ThermoFisher Cat No. WG1403A), transferred onto a nitrocellulose membrane using the Turboblot Turbo Transfer System (Bio-Rad), and probed with the indicated primary antibodies. Bound antibodies were detected with IRDye-680 or -800 conjugated secondary antibodies using a LI-COR scanner.
Antibodies used for immunoblot: mouse anti-human GSPT-1 mAb conjugated with AL647 (clone number GSPT1-164-17G9-G6, Celgene, San Diego, CA), IL-1β (R&D Systems, Cat No. AF-201-NA), cleaved caspase 3 (Cell Signaling, Cat No. 9664S), alpha-tubulin (Cell Signaling, Cat No. 3873S), cleaved Caspase-8 (Cell Signaling, Cat No. 9748S), Caspase-1 (Cell Signaling, Cat No. 3866S), HA tag (Cell Signaling, Cat No. 3724), phosphor-eIF2a (Cell Signaling, Cat No. 9721), total eIF2a (Cell Signaling, Cat No. 9722), ATF4 (Cell Signaling, Cat No. 11815S), CHOP (Abcam, Cat No. 11419), GAPDH (Cell Signaling, Cat No. 5174), rabbit anti-mouse 800 antibody (LI-COR Biosciences), rabbit anti-mouse 680 antibody (LI-COR Biosciences), mouse anti-rabbit 680 antibody (LI-COR Biosciences), mouse anti-rabbit 800 antibody (LI-COR Biosciences)
The level of intracellular pro IL-1β and released IL-1β in eight AML cell lines and normal PBMC treated with a titration of Compound 1 over a 48 hour period was assessed. (see FIGS. 1A-1C, Table 2). Supernatant IL-1βb level was induced over 5 fold in 6 out of 8 AML cell lines and normal PBMC upon Compound 1 treatment compared to DMSO (FIGS. 1A, 1B, and 1C, Table 2).

[2] = tested on: ML-2 parental, caspase 1 and caspase 8 knock out cells; assay: IL-1β in CRISPR/Cas9 caspase 1 or caspase 8 knock out cells (lysate and supernatant); conditions: 1 μM Compound 1
Experimental: To further confirm if caspase 8 is necessary for Compound 1 induced IL-1β upregulation and/or release, knock out studies were performed. Caspase 1 or caspase 8 was knocked out by CRISPR/Cas9 in ML-2 cells, and the effect of Compound 1 on intracellular and secreted IL-1β levels was investigated. Parental, caspase 1 and caspase 8 knock out cells were treated with or without 1 μM Compound 1. IL-1β levels were analyzed 48 and 72 hours post-compound treatment in cell lysate and culture supernatant.

MV4-11 = assay: Cytokine induction, electrochemiluminescence assay of culture supernatant; conditions: compounds at 1 μM, 72 hours

O=C1CCC(N2Cc3cc(CNC(=O)C(F)(F)c4ccc(Cl)cc4)ccc3C2=O)C(=O)N1 (stereo not drawn) [Compound 1, 2-(4-chlorophenyl)-N-((2-(2,6-dioxopiperidin-3-yl)-1-oxoisoindolin-5-yl)methyl)-2,2-difluoroacetamide]
IL-1β in cell culture supernatant, FAB M0/M1/M2 AML BMMC ([1]; four M0/M1/M2 samples): not able to induce IL-1β | IL-1β in cell culture supernatant, FAB M4/M5 AML BMMC ([1]; two out of five M4/M5 samples, 24 and 48 hours post treatment): marked induction of IL-1β | Intracellular pro-IL-1β (immunoblot) (ML-2 cells; 24, 48 and 72 hours, doses conferring similar caspase3/7 activation and viability loss): conferred induction | Cleaved caspase 3 (immunoblot) (ML-2 cells; 24 hours): concurrent induction of cleaved caspase 3 | GSPT1 level (immunoblot) (ML-2 cells; two high doses of Compound 1 at 24 hours): significant reduction of GSPT1 | Induction of IL-1β release ([2]; caspase 8 knock out ML-2 cells): compromised | Pro-IL-1β upregulation ([2]; caspase 8 knock out ML-2 cells): remains intact | Pro-IL-1β upregulation and secreted IL-1β ([2]; parental and caspase 1 knock out ML-2 cells, 48 and 72 hours): Upregulation of pro-IL-13 and increased secreted IL-1β were evident | Secreted IL-1β levels, panel of mechanistic compounds (MV4-11): produced markedly more secreted IL-1β compared to all other compounds tested
